# Laboratory results: the supplement of paper PMC10307832
# Compound: N[C@@H]1CCCN(c2c(/C=C3\SC(=O)NC3=O)cccc2-c2ccccc2)C1 [AZD1208] + C[C@@H](Oc1cc(-c2cnn(C3CCNCC3)c2)cnc1N)c1c(Cl)ccc(F)c1Cl [Crizotinib] (partner 1 µM)
# Test: relative viability (nuclei count vs DMSO), 5 days (fraction); higher = more cells survive
# Details: first compound 0.08 µM
# Outline: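 Relative viability equals treated-well nuclei counts divided by vehicle-well nuclei counts. Counts came from 4× images of lung cancer cell lines grown in 1536-well plates for 5 days after pin-tool dosing on the day after seeding. Dosing used one drug alone or a fixed anchor-drug dose plus five library-drug doses (not always all listed) in √10 steps, and values are medians of duplicate plates.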
row,Cell Line,relative viability
1,PC-14,0.925
2,LCLC-103H,1.03
3,NCI-H596,0.853
4,EMC-BAC-2,0.84
5,NCI-H2087,1.06
6,HCC-366,0.479
7,NCI-H1666,1.06
8,NCI-H647,0.953
9,NCI-H2126,0.993
10,H3255,0.897
11,COR-L23,0.741
12,COR-L 105,0.806
13,LOU-NH91,0.728
14,ChaGo-K-1,1.1
15,NCI-H3122,0.264
16,HOP-62,0.991
17,HCC-44,0.828
18,LU99A,0.517
19,BEN,0.729

row,Cell Line,relative viability
1,HARA,0.938
2,HCC-78,0.338
3,NCI-H441,0.73
4,LCLC-97TM1,0.464
5,NCI-H2023,0.618
6,A-427,0.888
7,NCI-H460,0.912
8,NCI-H727,0.795
9,NCI-H1734,0.683
10,NCI-H520,0.77
11,NCI-H2405,0.831
12,SW 1573,0.686
13,201T,1
14,NCI-H1915,0.847
15,HCC-827,0.93
16,LXF-289,0.853
17,NCI-H2347,0.626
18,NCI-H650,0.704

# Same assay, conditions: first compound 0.253 µM
row,Cell Line,relative viability
1,PC-14,1.02
2,LCLC-103H,1.11
3,NCI-H596,1.04
4,EMC-BAC-2,0.785
5,NCI-H2087,1.13
6,HCC-366,0.593
7,NCI-H1666,0.934
8,NCI-H647,1.09
9,NCI-H2126,1.04
10,H3255,0.854
11,COR-L23,0.661
12,COR-L 105,0.766
13,LOU-NH91,0.728
14,ChaGo-K-1,1.28
15,NCI-H3122,0.246
16,HOP-62,0.869
17,HCC-44,0.905
18,LU99A,0.541
19,BEN,0.825

row,Cell Line,relative viability
1,HARA,1.02
2,HCC-78,0.366
3,NCI-H441,0.674
4,LCLC-97TM1,0.515
5,NCI-H2023,0.514
6,A-427,0.974
7,NCI-H460,1.17
8,NCI-H727,0.863
9,NCI-H1734,0.649
10,NCI-H520,0.833
11,NCI-H2405,0.86
12,SW 1573,0.674
13,201T,1.08
14,NCI-H1915,0.982
15,HCC-827,0.992
16,LXF-289,0.894
17,NCI-H2347,0.626
18,NCI-H650,0.723

# Same assay, conditions: first compound 0.8 µM
row,Cell Line,relative viability
1,PC-14,0.991
2,LCLC-103H,1.05
3,NCI-H596,0.837
4,EMC-BAC-2,0.74
5,NCI-H2087,0.812
6,HCC-366,0.536
7,NCI-H1666,0.837
8,NCI-H647,0.894
9,NCI-H2126,0.991
10,H3255,0.916
11,COR-L23,0.699
12,COR-L 105,0.717
13,LOU-NH91,0.727
14,ChaGo-K-1,0.99
15,NCI-H3122,0.241
16,HOP-62,0.895
17,HCC-44,0.788
18,LU99A,0.519

row,Cell Line,relative viability
1,BEN,0.611
2,HARA,1.02
3,HCC-78,0.333
4,NCI-H441,0.667
5,NCI-H2023,0.563
6,A-427,0.797
7,NCI-H460,0.854
8,NCI-H727,0.819
9,NCI-H1734,0.504
10,NCI-H520,0.711
11,NCI-H2405,0.782
12,SW 1573,0.686
13,201T,1.06
14,NCI-H1915,0.865
15,HCC-827,0.931
16,LXF-289,0.8
17,NCI-H2347,0.582
18,NCI-H650,0.577

# Same assay, conditions: first compound 2.53 µM
row,Cell Line,relative viability
1,PC-14,0.923
2,LCLC-103H,1.31
3,NCI-H596,0.955
4,EMC-BAC-2,0.798
5,NCI-H2087,0.993
6,HCC-366,0.452
7,NCI-H1666,0.905
8,NCI-H647,0.906
9,NCI-H2126,1.01
10,H3255,0.828
11,COR-L23,0.725
12,COR-L 105,0.881
13,LOU-NH91,0.693
14,ChaGo-K-1,1.16
15,NCI-H3122,0.254
16,HOP-62,0.883
17,HCC-44,0.879
18,LU99A,0.488
19,BEN,0.639

row,Cell Line,relative viability
1,HARA,1.02
2,HCC-78,0.356
3,NCI-H441,0.526
4,LCLC-97TM1,0.318
5,NCI-H2023,0.6
6,A-427,0.851
7,NCI-H460,0.709
8,NCI-H727,0.789
9,NCI-H1734,0.528
10,NCI-H520,0.582
11,NCI-H2405,0.81
12,SW 1573,0.607
13,201T,1.11
14,NCI-H1915,0.885
15,HCC-827,0.915
16,LXF-289,0.814
17,NCI-H2347,0.648
18,NCI-H650,0.576

# Same assay, conditions: first compound 8 µM
row,Cell Line,relative viability
1,PC-14,0.906
2,LCLC-103H,1.03
3,NCI-H596,0.711
4,EMC-BAC-2,0.674
5,NCI-H2087,0.979
6,HCC-366,0.246
7,NCI-H1666,1.03
8,NCI-H647,0.757
9,NCI-H2126,0.974
10,H3255,0.774
